According to patent publication US6368624B1, “Tableted product prepared by vacuum freeze-drying of a plant belonging to genus aloe of family Liliaceae and the method for producing same” (Yurika Incorporated, priority 1990, dated 2002):

Tested on: human O-type erythrocytes
Assay: Erythrocyte agglutination, microtiter method
Assay type: cell-based
Details: at a concentration of 1 mg/ml
Protocol: The inventive tablet and the control tablet obtained by drying under hot air circulation, were crushed into powders. 1.0 g each of the powders was dissolved in 10 ml of distilled water. After stirring, each of the resulting solutions was centrifuged at 4° C. for 30 minutes at 12,000 rpm.
The erythrocyte agglutination activity of each of the produced supernatants was examined in accordance with the microtiter method.
A buffer solution obtained by mixing phosphoric acid with physiological saline to pH 7.4 was added to 100 μl each of the supernatarits for two-stage dilution until 128-fold dilution was reached. To each diluted solution, 100 μof the 1% human O-type erythrocytes were added, and reaction was carried out at 37° C. for one hour to observe the progress of agglutination.

Substance Concanavalin A has an Agglutination titer of 32 titer.
